Source: ChEMBL document CHEMBL3259619, “Antibacterial activity of a series of N2,N4-disubstituted quinazoline-2,4-diamines” (J Med Chem, 2014)
Converted amounts (≈) assume the structure as drawn. The source made the active and inactive calls. The rule behind the calls is not given here.

Tests used:
Neisseria sp. = test: Antimicrobial activity against Neisseria species; assay type: functional
Staphylococcus aureus [1] = test: Antibacterial activity against methicillin-resistant Staphylococcus aureus SA-1417 infected in mouse assessed as protection of mouse; assay type: functional; conditions: read-out: PD50
Enterococcus = test: Antibacterial activity against Enterococcus; assay type: functional
Haemophilus influenzae = test: Antimicrobial activity against Haemophilus influenzae; assay type: functional
Staphylococcus = test: Antibacterial activity against Staphylococcus; assay type: functional
Moraxella catarrhalis = test: Antimicrobial activity against Moraxella catarrhalis; assay type: functional
Listeria monocytogenes = test: Antimicrobial activity against Listeria monocytogenes; assay type: functional
Legionella pneumophila = test: Antimicrobial activity against Legionella pneumophila; assay type: functional
Streptococcus = test: Antibacterial activity against Streptococcus; assay type: functional
Staphylococcus aureus [2] = test: Antimicrobial activity against N2,N4-dibenzylquinazoline-2,4-diamine-induced methicillin-resistant Staphylococcus aureus CBD-635 mutant M4 assessed as complete inhibition of bacterial growth after overnight incubation; assay type: functional
Staphylococcus aureus [3] = test: Antimicrobial activity against methicillin-resistant Staphylococcus aureus CBD-635 assessed as complete inhibition of bacterial growth after overnight incubation; assay type: functional
Staphylococcus aureus [4] = test: Antimicrobial activity against N2,N4-dibenzylquinazoline-2,4-diamine-induced methicillin-resistant Staphylococcus aureus CBD-635 mutant M3 assessed as complete inhibition of bacterial growth after overnight incubation; assay type: functional
Staphylococcus aureus [5] = test: Antimicrobial activity against N2,N4-dibenzylquinazoline-2,4-diamine-induced methicillin-resistant Staphylococcus aureus CBD-635 mutant M6 assessed as complete inhibition of bacterial growth after overnight incubation; assay type: functional
Staphylococcus aureus [6] = test: Antimicrobial activity against methicillin-resistant Staphylococcus aureus CBD-635 assessed as complete inhibition of bacterial growth at 5 times MIC after overnight incubation in presence of tetrahydrofolic acid; assay type: functional, organism-based
Staphylococcus aureus [7] = test: Antimicrobial activity against N2,N4-dibenzylquinazoline-2,4-diamine-induced methicillin-resistant Staphylococcus aureus CBD-635 mutant M7 assessed as complete inhibition of bacterial growth after overnight incubation; assay type: functional
Staphylococcus aureus [8] = test: Antimicrobial activity against N2,N4-dibenzylquinazoline-2,4-diamine-induced methicillin-resistant Staphylococcus aureus CBD-635 mutant M5 assessed as complete inhibition of bacterial growth after overnight incubation; assay type: functional
Staphylococcus aureus [9] = test: Antimicrobial activity against N2,N4-dibenzylquinazoline-2,4-diamine-induced methicillin-resistant Staphylococcus aureus CBD-635 mutant M2 assessed as complete inhibition of bacterial growth after overnight incubation; assay type: functional
Staphylococcus aureus [10] = test: Antimicrobial activity against N2,N4-dibenzylquinazoline-2,4-diamine-induced methicillin-resistant Staphylococcus aureus CBD-635 mutant M1 assessed as complete inhibition of bacterial growth after overnight incubation; assay type: functional
Bacillus subtilis = test: Antimicrobial activity against Bacillus subtilis; assay type: functional, organism-based
Escherichia coli = test: Antimicrobial activity against Escherichia coli; assay type: functional
Streptococcus pyogenes = test: Antimicrobial activity against Streptococcus pyogenes; assay type: functional
Klebsiella pneumoniae = test: Antimicrobial activity against Klebsiella pneumoniae; assay type: functional
Aspergillus niger = test: Antimicrobial activity against Aspergillus niger; assay type: functional
Salmonella typhimurium = test: Antimicrobial activity against Salmonella typhimurium; assay type: functional, Salmonella enterica subsp. enterica serovar Typhimurium; conditions: Salmonella enterica
Trichoderma viride = test: Antimicrobial activity against Trichoderma viride; assay type: functional
Candida albicans = test: Antimicrobial activity against Candida albicans; assay type: functional
Staphylococcus aureus [11] = test: Antimicrobial activity against Staphylococcus aureus; assay type: functional, organism-based

Cc1c(N2CC[C@@H]([C@H](C)N)C2)c(F)cc2c(=O)[nH]c(=O)n(C3CC3)c12
MIC90 (Neisseria sp.): 0.5 µg/mL (≈ 1.44 µM) | ED50 (Staphylococcus aureus [1]): 2.5 mg/kg | MIC (Enterococcus): 2 µg/mL (≈ 5.77 µM) | MIC90 (Haemophilus influenzae): 0.5 µg/mL (≈ 1.44 µM) | MIC90 (Staphylococcus): 0.5 µg/mL (≈ 1.44 µM) | MIC90 (Moraxella catarrhalis): 0.5 µg/mL (≈ 1.44 µM) | MIC90 (Listeria monocytogenes): 0.5 µg/mL (≈ 1.44 µM) | MIC90 (Legionella pneumophila): 0.5 µg/mL (≈ 1.44 µM) | MIC90 (Streptococcus): 0.06 µg/mL (≈ 0.173 µM)

Clc1ccc(CNc2nc(NCc3ccccc3)c3ccccc3n2)cc1
MIC (Staphylococcus aureus [2]): 2.7 µM (≈ 1.01 µg/mL) | MIC (Staphylococcus aureus [3]): 27 µM (≈ 10.1 µg/mL) | MIC (Staphylococcus aureus [4]): 2.7 µM (≈ 1.01 µg/mL) | MIC (Staphylococcus aureus [5]): 2.7 µM (≈ 1.01 µg/mL) | inhibition (Staphylococcus aureus [6]): inactive | MIC (Staphylococcus aureus [7]): 2.7 µM (≈ 1.01 µg/mL) | MIC (Staphylococcus aureus [8]): 2.7 µM (≈ 1.01 µg/mL) | MIC (Staphylococcus aureus [9]): 2.7 µM (≈ 1.01 µg/mL) | MIC (Staphylococcus aureus [10]): 27 µM (≈ 10.1 µg/mL)

c1ccc2c(c1)cc1c3ccccc3nc(-c3csc4ccccc34)n21
MIC (Bacillus subtilis): 2 µg/mL (≈ 5.71 µM) | MIC (Escherichia coli): 2 µg/mL (≈ 5.71 µM) | MIC (Streptococcus pyogenes): 2 µg/mL (≈ 5.71 µM) | MIC (Klebsiella pneumoniae): 2 µg/mL (≈ 5.71 µM) | MIC (Aspergillus niger): 2 µg/mL (≈ 5.71 µM) | MIC (Salmonella typhimurium): 2 µg/mL (≈ 5.71 µM) | MIC (Trichoderma viride): 2 µg/mL (≈ 5.71 µM) | MIC (Candida albicans): 2 µg/mL (≈ 5.71 µM) | MIC (Staphylococcus aureus [11]): 2 µg/mL (≈ 5.71 µM)

COc1ccc(CNc2nc(NCc3ccccc3)c3ccccc3n2)cc1
MIC (Staphylococcus aureus [2]): 270 µM (≈ 100 µg/mL) | MIC (Staphylococcus aureus [3]): 0.67 µM (≈ 0.248 µg/mL) | MIC (Staphylococcus aureus [4]): 0.67 µM (≈ 0.248 µg/mL) | MIC (Staphylococcus aureus [5]): 270 µM (≈ 100 µg/mL) | inhibition (Staphylococcus aureus [6]): inactive | MIC (Staphylococcus aureus [7]): 270 µM (≈ 100 µg/mL) | MIC (Staphylococcus aureus [8]): 270 µM (≈ 100 µg/mL) | MIC (Staphylococcus aureus [9]): 0.67 µM (≈ 0.248 µg/mL) | MIC (Staphylococcus aureus [10]): 0.67 µM (≈ 0.248 µg/mL)
